Here are results for 19 compounds from patent US8106091B2, “Inhibitors of IKK-beta serine-threonine protein kinase” (Chroma Therapeutics Ltd., priority 2006, dated 2012).

One assay deals with T1, IKBKB (IKKβ) (Homo sapiens, UniProt O14920).
T1 construct: purchased Invitrogen (Paisley, UK)
T1 sequence (O14920 1-756): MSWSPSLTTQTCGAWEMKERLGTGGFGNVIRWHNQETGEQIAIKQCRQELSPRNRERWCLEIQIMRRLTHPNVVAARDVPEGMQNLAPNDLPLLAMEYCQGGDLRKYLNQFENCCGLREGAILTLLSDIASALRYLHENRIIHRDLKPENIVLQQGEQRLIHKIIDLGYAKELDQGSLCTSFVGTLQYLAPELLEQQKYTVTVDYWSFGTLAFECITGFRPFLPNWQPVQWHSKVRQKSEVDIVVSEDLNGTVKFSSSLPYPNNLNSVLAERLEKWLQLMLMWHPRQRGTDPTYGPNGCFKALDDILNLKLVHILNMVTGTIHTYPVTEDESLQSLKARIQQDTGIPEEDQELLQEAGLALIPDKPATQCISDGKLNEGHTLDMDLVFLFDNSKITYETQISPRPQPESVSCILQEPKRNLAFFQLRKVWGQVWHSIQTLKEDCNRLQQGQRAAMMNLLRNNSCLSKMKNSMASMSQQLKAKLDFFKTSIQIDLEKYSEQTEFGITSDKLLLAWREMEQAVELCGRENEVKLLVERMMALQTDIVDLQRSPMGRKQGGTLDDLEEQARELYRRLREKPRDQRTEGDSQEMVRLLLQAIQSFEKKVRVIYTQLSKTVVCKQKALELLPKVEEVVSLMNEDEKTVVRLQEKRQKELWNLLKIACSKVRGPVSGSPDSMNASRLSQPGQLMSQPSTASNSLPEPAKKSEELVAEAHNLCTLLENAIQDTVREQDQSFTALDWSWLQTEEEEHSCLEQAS
The assay is described as follows: IKKβ enzyme assay (Z'-LYTE, Invitrogen). In kind it is biochemical. Particulars: ATP at or close to Km; read-out: Inhibitor activity versus IKKβ. Here is the method: The ability of compounds to inhibit IKKβ kinase activity was measured in an assay performed by Invitrogen (Paisley, UK). The Z′-LYTE™ biochemical assay employs a fluorescence-based, coupled-enzyme format and is based on the differential sensitivity of phosphorylated and non-phosphorylated peptides to proteolytic cleavage. The peptide substrate is labelled with two fluorophores—one at each end—that make up a FRET pair. In the primary reaction, the kinase transfers the gamma-phosphate of ATP to a single serine or threonine residue in a synthetic FRET-peptide. In the secondary reaction, a site-specific protease recognizes and cleaves non-phosphorylated FRET-peptides. Phosphorylation of FRET-peptides suppresses cleavage by the Development Reagent. Cleavage disrupts FRET between the donor (i.e., coumarin) and acceptor (i.e. fluorescein) fluorophores on the FRET-peptide, whereas uncleaved, phosphorylated FRET-peptides maintain FRET. A […] method, which calculates the ratio (the Emission Ratio) of donor emission to acceptor emission after excitation of the donor fluorophore at 400 nm, is used to quantitate reaction progress.
The final 10 μL Kinase Reaction consists of 0.9-8.0 ng IKBKB (IKKβ), 2 μM Ser/Thr 05 Peptide and ATP in 50 mM HEPES pH 7.5, 0.01% BRIJ-35, 10 mM MgCl2, 1 mM EGTA. The assay is performed at an ATP concentration at, or close to the Km. After the 60 minute Kinase Reaction incubation at room temperature, 5 μL of a 1:128 dilution of Development Reagent is added. The assay plate is incubated for a further 60 minutes at room temperature and read on a fluorescence plate reader.
Duplicate data points are generated from a ⅓ log dilution series of a stock solution of test compound in DMSO. Nine dilutions steps are made from a top concentration of 10 μM, and a ‘no compound’ blank is included. Data is collected and analysed using XLfit software from IDBS. The dose response curve is curve fitted to model number 205 (sigmoidal dose-response model). From the curve generated, the concentration giving 50% inhibition is determined and reported.

The subject of the next assay is human whole blood. In words: LPS-stimulation of human whole blood, TNF-α release. Particulars: LPS 100 ng/ml, 6 hrs, inhibitor added 2 hrs before, read-out: Inhibitor activity versus human whole blood TNFα release. In kind it is cell-based. Here is the method:
LPS-Stimulation of Human Whole Blood
Whole blood was taken by venous puncture using heparinised vacutainers (Becton Dickinson) and diluted in an equal volume of RPMI1640 tissue culture media (Sigma). 100 μl was plated in V-bottomed 96 well tissue culture treated plates. 2 hrs after the addition of the inhibitor in 100 μl of RPMI1640 media, the blood was stimulated with LPS (E coli strain 005:B5, Sigma) at a final concentration of 100 ng/ml and incubated at 37° C. in 5% CO2 for 6 hrs. TNF-α levels were measured from cell-free supernatants by sandwich ELISA (R&D Systems #QTA00B)

The test system of a further assay is THP-1 cells. In words: LPS-stimulation of THP-1 cells, TNF-α release. The class given is cell-based. Particulars: Homo sapiens, LPS 1 μg/ml, 6 hrs, inhibitor added 2 hrs before, read-out: Inhibitor activity versus THP-1 TNFα release. On the procedure:
LPS-Stimulation of THP-1 Cells
THP-1 cells were plated in 100 μl at a density of 4×10^4 cells/well in V-bottomed 96 well tissue culture treated plates and incubated at 37° C. in 5% CO2 for 16 hrs. 2 hrs after the addition of the inhibitor in 100 μl of tissue culture media, the cells were stimulated with LPS (E coli strain 005:B5, Sigma) at a final concentration of 1 μg/ml and incubated at 37° C. in 5% CO2 for 6 hrs. TNF-α levels were measured from cell-free supernatants by sandwich ELISA (R&D Systems #QTA00B)

Consider `Cc1cc(OCC[C@H](N)C(=O)OC2CCCC2)ccc1-c1cc(C(N)=O)c(NC(N)=O)s1` [Example 5, Cyclopentyl O-{4-[4-carbamoyl-5-(carbamoylamino)-2-thienyl]-3-methylphenyl}-L-homoserinate], for which the results for the IC50 at IKBKB (IKKβ), with human whole blood and with THP-1 cells were less than 1000 nM, greater than 5000 nM and less than 1000 nM, respectively.

With `NC(=O)Nc1sc(-c2ccc(C#CC[C@H](N)C(=O)OC3CCCC3)cc2)cc1C(N)=O` [Example 15, Cyclopentyl (2S)-2-amino-5-{4-[4-carbamoyl-5-(carbamoylamino)-2-thienyl]phenyl}pent-4-ynoate], the IC50 at IKBKB (IKKβ) was less than 1000 nM; with human whole blood, greater than 5000 nM; in the assay with THP-1 cells, 1000 to 5000 nM.

Regarding `NC(=O)Nc1sc(-c2ccc(OCC[C@@H](N)C(=O)OC3CCCC3)cc2)cc1C(N)=O` [Example 1, Cyclopentyl O-{4-[4-carbamoyl-5-(carbamoylamino)-2-thienyl]phenyl}-D-homoserinate], the IC50 at IKBKB (IKKβ) was less than 1000 nM; with human whole blood, 1000 to 5000 nM; in the assay on THP-1 cells, less than 1000 nM.

Take `NC(=O)Nc1sc(-c2ccc(C[C@H](N)C(=O)OC3CCCC3)cc2)cc1C(N)=O` [Example 16, Cyclopentyl 4-[4-carbamoyl-5-(carbamoylamino)-2-thienyl]-L-phenylalaninate]: the IC50 was less than 1000 nM at IKBKB (IKKβ), 1000 to 5000 nM in the assay on human whole blood and less than 1000 nM in the assay with THP-1 cells.

As for `NC(=O)Nc1sc(-c2ccc(CCC[C@H](N)C(=O)OC3CCCC3)cc2)cc1C(N)=O` [Example 11, Cyclopentyl 5-{4-[4-carbamoyl-5-(carbamoylamino)-2-thienyl]phenyl}-L-norvalinate], the IC50 at IKBKB (IKKβ) is less than 1000 nM; in the assay on human whole blood, 1000 to 5000 nM; in the assay on THP-1 cells, less than 1000 nM.

As to `NC(=O)Nc1sc(-c2ccc(OCC[C@H](N)C(=O)OC3CCCC3)cc2Cl)cc1C(N)=O` [Example 7, Cyclopentyl O-{4-[4-carbamoyl-5-(carbamoylamino)-2-thienyl]-3-chlorophenyl}-L-homoserinate], the IC50 at IKBKB (IKKβ) was less than 1000 nM; in the assay on human whole blood, greater than 5000 nM; in the assay on THP-1 cells, less than 1000 nM.

Take `NC(=O)Nc1sc(-c2ccc(OCCC[C@H](N)C(=O)OC3CCCC3)cc2)cc1C(N)=O` [Example 3, Cyclopentyl 5-{4-[4-carbamoyl-5-(carbamoylamino)-2-thienyl]phenoxy}-L-norvalinate]: the results for the IC50 at IKBKB (IKKβ), in the assay with human whole blood and in the assay with THP-1 cells were less than 1000 nM, greater than 5000 nM and 1000 to 5000 nM, respectively.

Regarding `NC(=O)Nc1sc(-c2ccc(OCCC[C@@H](N)C(=O)OC3CCCC3)cc2)cc1C(N)=O` [Example 4, Cyclopentyl 5-{4-[4-carbamoyl-5-(carbamoylamino)-2-thienyl]phenoxy}-D-norvalinate], the IC50 on IKBKB (IKKβ) is less than 1000 nM; in the assay with THP-1 cells, 1000 to 5000 nM.

Consider `NC(=O)Nc1cc(-c2ccc(OCC[C@H](N)C(=O)OC3CCCC3)cc2)sc1C(N)=O` [Example 23, Cyclopentyl O-{4-[5-carbamoyl-4-(carbamoylamino)-2-thienyl]phenyl}-L-homoserinate], for which the IC50 at IKBKB (IKKβ) was less than 1000 nM; in the assay on THP-1 cells it was 1000 to 5000 nM.

For `NC(=O)Nc1sc(-c2ccc(/C=C\C[C@H](N)C(=O)OC3CCCC3)cc2)cc1C(N)=O` [Example 18, Cyclopentyl (2S,4Z)-2-amino-5-{4-[4-carbamoyl-5-(carbamoylamino)-2-thienyl]phenyl}pent-4-enoate], the figures for the IC50 on IKBKB (IKKβ), with human whole blood and in the assay with THP-1 cells were less than 1000 nM, 1000 to 5000 nM and 1000 to 5000 nM, respectively.

Take `NC(=O)Nc1sc(-c2ccc(/C=C/C[C@@H](NC3CCCCC3)C(=O)OC3CCCC3)cc2)cc1C(N)=O` [Example 20, Cyclopentyl (2R,4E)-5-{4-[4-carbamoyl-5-(carbamoylamino)thiophen-2-yl]phenyl}-2-(cyclohexylamino)pent-4-enoate]: the IC50 at IKBKB (IKKβ) was less than 1000 nM; in the assay with THP-1 cells, 1000 to 5000 nM.

As to `NC(=O)Nc1sc(-c2ccc(/C=C/C[C@H](N)C(=O)OC3CCCC3)cc2)cc1C(N)=O` [Example 9, Cyclopentyl (2S,4E)-2-amino-5-{4-[4-carbamoyl-5-(carbamoylamino)-2-thienyl]phenyl}pent-4-enoate], the IC50 on IKBKB (IKKβ), in the assay on human whole blood and with THP-1 cells was less than 1000 nM in each case.

Take `NC(=O)Nc1sc(-c2ccc(COCC[C@H](N)C(=O)OC3CCCC3)cc2)cc1C(N)=O` [Example 17, Cyclopentyl O-{4-[4-carbamoyl-5-(carbamoylamino)-2-thienyl]benzyl}-L-homoserinate]: the IC50 is less than 1000 nM at IKBKB (IKKβ) and 1000 to 5000 nM in the assay on THP-1 cells.

Take `NC(=O)Nc1sc(-c2ccc(/C=C/C[C@@H](N)C(=O)OC3CCCC3)cc2)cc1C(N)=O` [Example 10, Cyclopentyl (2R,4E)-2-amino-5-{4-[4-carbamoyl-5-(carbamoylamino)-2-thienyl]phenyl}pent-4-enoate]: the IC50 on IKBKB (IKKβ), in the assay with human whole blood and in the assay on THP-1 cells was less than 1000 nM in each case.

With `NC(=O)Nc1sc(-c2ccc(OCC[C@H](N)C(=O)OC3CCCC3)c(Cl)c2)cc1C(N)=O` [Example 8, Cyclopentyl O-{4-[4-carbamoyl-5-(carbamoylamino)-2-thienyl]-2-chlorolphenyl}-L-homoserinate], the IC50 was less than 1000 nM on IKBKB (IKKβ), greater than 5000 nM in the assay with human whole blood and 1000 to 5000 nM in the assay with THP-1 cells.

For `Cc1cc(-c2cc(C(N)=O)c(NC(N)=O)s2)ccc1/C=C/C[C@H](N)C(=O)OC1CCCC1` [Example 14, Cyclopentyl (2S,4E)-2-amino-5-{4-[4-carbamoyl-5-(carbamoylamino)-2-thienyl]-2-methylphenyl}pent-4-enoate], the IC50 on IKBKB (IKKβ), in the assay with human whole blood and in the assay with THP-1 cells was less than 1000 nM throughout.

Take `NC(=O)Nc1sc(-c2ccc(/C=C/C[C@H](N)C(=O)OC3CCCC3)cc2Cl)cc1C(N)=O` [Example 13, Cyclopentyl (2S,4E)-2-amino-5-{4-[4-carbamoyl-5-(carbamoylamino)-2-thienyl]-3-chlorophenyl}pent-4-enoate]: the IC50 is less than 1000 nM at IKBKB (IKKβ), 1000 to 5000 nM in the assay with human whole blood and less than 1000 nM in the assay on THP-1 cells.

For `NC(=O)Nc1sc(-c2ccc(OCC[C@H](N)C(=O)OC3CCCC3)cc2)cc1C(N)=O` [Example 2, Cyclopentyl O-{4-[4-carbamoyl-5-(carbamoylamino)-2-thienyl]phenyl}-L-homoserinate], the IC50 on IKBKB (IKKβ) is less than 1000 nM; in the assay with THP-1 cells, 1000 to 5000 nM.

With `Cc1cc(-c2cc(C(N)=O)c(NC(N)=O)s2)ccc1OCC[C@H](N)C(=O)OC1CCCC1` [Example 6, Cyclopentyl O-{4-[4-carbamoyl-5-(carbamoylamino)-2-thienyl]-2-methylphenyl}-L-homoserinate], the IC50 at IKBKB (IKKβ) is less than 1000 nM; in the assay on human whole blood, greater than 5000 nM; in the assay on THP-1 cells it was less than 1000 nM.
